In patent US12599620B2, “Method for the treatment of chronic fatigue syndrome using an inhibitory or cytotoxic agent against plasma cells” (Vestlandets Innovasjonsselskap AS, priority 2019, dated 2026):

Legend:
[1] = tested on: ME/CFS patients; details: Patient 2; open-label trial, cyclophosphamide intravenous infusions
[2] = tested on: ME/CFS patients; details: cited from earlier work; for effect on ME/CFS symptoms: patients with longstanding ME/CFS given the drug for an acquired cancer
[3] = tested on: ME/CFS patients; experiment: Bortezomib treatment of ME/CFS patients (case reports Patient 1, Patient 2); type: in vivo, human; details: for clinical effect on ME/CFS symptoms: PEM, pain
Protocol: They received Bortezomib subcutaneously says 1, 4, 11 and 15. […] They therefore received the third course of Bortezomib as an intravenous infusion with the same dose 1.3 mg/m^2, given at days 1, 4, 8 and 11.
They had increasing energy, increased exertion and was able to perform many new tasks. […] The self-reported symptom improvement was supported by measured steps per 24 hours (Fitbit armband) and in the response period we registered more than 10.000 steps per day.
The effect lasted for approximately 7 weeks before they started experiencing gradual relapse of the ME/CFS symptoms.
[…] Fitbit armband verified […] description of improvement, with increasing steps per 24 hours from mean 1500-2000 before intervention to approximately 4000, up to 7000 on single days, after response.

[4] = tested on: patients with N-Methyl-D-Aspartate (NMDA) receptor antibody-mediated encephalitis; details: refractory to first and second line therapy; cited from earlier work
[5] = tested on: lupus nephritis in mice; details: Bortezomib plus B-cell depletion; cited from earlier work

SMILES | duration of clinical response before gradual relapse [1] | effect on ME/CFS symptoms [2] | share of patients with significant clinical improvements of long duration ([2]; phase II trial, 6 courses of Cyclophosphamide) | duration of effect before gradual relapse ([3]; Patient 1) | measured steps per 24 hours (Fitbit armband) in the response period ([3]; Patient 1) | clinical effect on ME/CFS symptoms ([3]; Patient 1, cognitive disturbances, sleep problems) | side effects ([3]; Patient 1, first course 1.0 mg/m^2 subcutaneously) | side effects ([3]; Patient 1, second course 1.3 mg/m^2 subcutaneously) | side effects ([3]; Patient 1, third course 1.3 mg/m^2 intravenous infusion) | start of gradual improvement of ME/CFS symptoms, from start of bortezomib treatment ([3]; Patient 1, three courses Bortezomib 1.0-1.3 mg/m^2 sc/iv) | response lasting until time after the last Bortezomib infusion ([3]; Patient 2) | steps per 24 hours on single days after response ([3]; Patient 2) | side effects ([3]; Patient 2, after the last (sixth) course) | start of improvement of ME/CFS symptoms, after start of Bortezomib intervention ([3]; Patient 2, courses 1.0 then 1.3 mg/m^2) | clinical effect on ME/CFS symptoms ([3]; Patient 2, energy, dizziness, cognitive function) | side effects ([3]; Patient 2, first course 1.0 mg/m^2 subcutaneously) | total duration of response before gradual relapse ([3]; Patient 2, in total 6 courses) | steps per 24 hours (Fitbit armband) after response ([3]; Patient 2, mean 1500-2000 before intervention) | clinical outcome [4] | outcome [5]
O=P1(N(CCCl)CCCl)NCCCO1 (stereo not drawn) [Cyclophosphamide] | almost a year | significant symptomatic improvement | more than half the patients | – | – | – | – | – | – | – | – | – | – | – | – | – | – | – | – | –
CC(C)C[C@H](NC(=O)[C@H](Cc1ccccc1)NC(=O)c1cnccn1)B(O)O [Bortezomib] | – | – | – | approximately 7 weeks | more than 10.000 steps per day | gradual improvement of all their ME/CFS symptoms | no bortezomib-associated side effects except an exanthema around the injection site | increasing local reaction at the injection site and with some transient fatigue and pain in the muscles | transient exanthema along the vein on the arm | 10 week | 6 weeks | up to 7000 steps per 24 hours | discomfort in their lower extremities at the legs and feet, and some constipation | 7 weeks | gradual and consistent improvement of all their ME/CS symptoms | minimal skin reaction at the injection site and no other side effects | 16 weeks | approximately 4000 steps per 24 hours | clinical improvement and reduction of pathologic autoantibodies | sustained plasma cell depletion and amelioration of lupus nephritis
O=P1(NCCCl)OCCCN1CCCl (stereo not drawn) [Ifosfamide] | – | significant symptomatic improvement | – | – | – | – | – | – | – | – | – | – | – | – | – | – | – | – | – | –
